Tests used:
rabbits = experiment: Tissue proton T1 and T2 relaxation times 15 min after intravenous administration (dose-response); assay type: in vivo; conditions: for T1 relaxation time / T2 relaxation time: 10 mHz RADX; for Approximate ED50, intravenous dose to reduce tissue T1 by 50% / Approximate ED50, intravenous dose to reduce tissue T2 by 50%: 15 min; for effect on hepatic and biliary T1 relaxation times: intravenous administration, Trihydrate
Protocol: (§1) All experiments employing the complex dihydrogen bis(N-[N′-(2,6-dimethylphenyl)carbamoylmethyl]iminodiaceto)manganese (II) trihydrate were conducted following intravenous administration to rabbits. A 10 mM solution of the complex was used in these studies. Rabbits were anesthetized with ketamine/xylazine prior to treatment. The results given were obtained with a 10 mHz RADX proton spin analyzer.
Dose-response experiments were conducted on rabbits following intravenous injection of 0.01-0.10 mmol of the complex/kg. […]

rabbit = experiment: Bile proton T1 and T2 relaxation times over 105 min after intravenous injection; assay type: in vivo; conditions: 0.03 mmol/kg i.v., one rabbit
Protocol: as §1
In a third study, one rabbit received 0.03 mmol of the complex/kg and bile samples were collected at 5-20 min intervals over a 105 min time course and proton T1 and T2 relaxation times were determined. Control bile T1 relaxation time was 944 msec. within 1 min of injection, bile T1 was reduced to 60 msec. Over the 105 minute time course, bile T1 returned to a value of 91 msec, less than 10% of the preinjection control value. The preinjection bile T2 relaxation time was 16 msec.

[1] = Lung, 15 min after 0.08 mmol/kg i.v., rabbits
[2] = Lung, 15 min after 0.10 mmol/kg i.v., 1 rabbit
[3] = Pancreas, 15 min after 0.01 mmol/kg i.v., rabbits
[4] = Pancreas, 15 min after 0.03 mmol/kg i.v., rabbits
[5] = Pancreas, 15 min after 0.08 mmol/kg i.v., rabbits
[6] = Pancreas, 15 min after 0.10 mmol/kg i.v., 1 rabbit
[7] = Renal Cortex, 15 min after 0.01 mmol/kg i.v., rabbits
[8] = Renal Cortex, 15 min after 0.03 mmol/kg i.v., rabbits
[9] = Renal Cortex, 15 min after 0.08 mmol/kg i.v., rabbits
[10] = Renal Cortex, 15 min after 0.10 mmol/kg i.v., 1 rabbit
[11] = Renal Medulla, 15 min after 0.01 mmol/kg i.v., rabbits
[12] = Renal Medulla, 15 min after 0.03 mmol/kg i.v., rabbits
[13] = Renal Medulla, 15 min after 0.08 mmol/kg i.v., rabbits
[14] = Renal Medulla, 15 min after 0.10 mmol/kg i.v., 1 rabbit
[15] = Skeletal Muscle, 15 min after 0.01 mmol/kg i.v., rabbits
[16] = Skeletal Muscle, 15 min after 0.03 mmol/kg i.v., rabbits
[17] = Skeletal Muscle, 15 min after 0.08 mmol/kg i.v., rabbits
[18] = Skeletal Muscle, 15 min after 0.10 mmol/kg i.v., 1 rabbit
[19] = Small Intestine, 15 min after 0.01 mmol/kg i.v., rabbits
[20] = Small Intestine, 15 min after 0.03 mmol/kg i.v., rabbits
[21] = Small Intestine, 15 min after 0.08 mmol/kg i.v., rabbits
[22] = Small Intestine, 15 min after 0.10 mmol/kg i.v., 1 rabbit
[23] = Spleen, 15 min after 0.01 mmol/kg i.v., rabbits
[24] = Spleen, 15 min after 0.03 mmol/kg i.v., rabbits
[25] = Spleen, 15 min after 0.08 mmol/kg i.v., rabbits
[26] = Spleen, 15 min after 0.10 mmol/kg i.v., 1 rabbit
[27] = Stomach, 15 min after 0.01 mmol/kg i.v., rabbits
[28] = Stomach, 15 min after 0.03 mmol/kg i.v., rabbits
[29] = Stomach, 15 min after 0.08 mmol/kg i.v., rabbits
[30] = Stomach, 15 min after 0.10 mmol/kg i.v., 1 rabbit

Cc1cccc(C)c1NC(=O)CN(CC(=O)[O-])CC(=O)O.Cc1cccc(C)c1NC(=O)CN(CC(=O)[O-])CC(=O)O.O.O.O.[Mn+2] [Example 2]
T1 relaxation time (rabbits; [1]): 222 ms
T2 relaxation time (rabbits; [1]): 67 ms
T1 relaxation time (rabbits; [2]): 144 ms
T2 relaxation time (rabbits; [2]): 62 ms
Approximate ED50, intravenous dose to reduce tissue T1 by 50% (rabbits; Lung, rabbits): 0.075 mmol/kg
Approximate ED50, intravenous dose to reduce tissue T2 by 50% (rabbits; Lung, rabbits): 0.15 mmol/kg
T1 relaxation time (rabbits; [3]): 225 ms
T2 relaxation time (rabbits; [3]): 66 ms
T1 relaxation time (rabbits; [4]): 104 ms
T2 relaxation time (rabbits; [4]): 118 ms
T1 relaxation time (rabbits; [5]): 101 ms
T2 relaxation time (rabbits; [5]): 70 ms
T1 relaxation time (rabbits; [6]): 149 ms
T2 relaxation time (rabbits; [6]): 69 ms
Approximate ED50, intravenous dose to reduce tissue T1 by 50% (rabbits; Pancreas, rabbits): 0.064 mmol/kg
T1 relaxation time (rabbits; [7]): 236 ms
T2 relaxation time (rabbits; [7]): 77 ms
T1 relaxation time (rabbits; [8]): 164 ms
T2 relaxation time (rabbits; [8]): 63 ms
T1 relaxation time (rabbits; [9]): 77 ms
T2 relaxation time (rabbits; [9]): 42 ms
T1 relaxation time (rabbits; [10]): 71 ms
T2 relaxation time (rabbits; [10]): 37 ms
T1 relaxation time (rabbits; [11]): 435 ms
T2 relaxation time (rabbits; [11]): 122 ms
T1 relaxation time (rabbits; [12]): 218 ms
T2 relaxation time (rabbits; [12]): 95 ms
T1 relaxation time (rabbits; [13]): 124 ms
T2 relaxation time (rabbits; [13]): 74 ms
T1 relaxation time (rabbits; [14]): 35 ms
T2 relaxation time (rabbits; [14]): 21 ms
Approximate ED50, intravenous dose to reduce tissue T1 by 50% (rabbits; Renal cortex, rabbits): 0.041 mmol/kg
Approximate ED50, intravenous dose to reduce tissue T2 by 50% (rabbits; Renal cortex, rabbits): 0.14 mmol/kg
Approximate ED50, intravenous dose to reduce tissue T1 by 50% (rabbits; Renal medulla, rabbits): 0.030 mmol/kg
Approximate ED50, intravenous dose to reduce tissue T2 by 50% (rabbits; Renal medulla, rabbits): 0.90 mmol/kg
T1 relaxation time (rabbits; [15]): 364 ms
T2 relaxation time (rabbits; [15]): 35 ms
T1 relaxation time (rabbits; [16]): 304 ms
T2 relaxation time (rabbits; [16]): 38 ms
T1 relaxation time (rabbits; [17]): 255 ms
T2 relaxation time (rabbits; [17]): 39 ms
T1 relaxation time (rabbits; [18]): 205 ms
T2 relaxation time (rabbits; [18]): 38 ms
Approximate ED50, intravenous dose to reduce tissue T1 by 50% (rabbits; Skeletal muscle, rabbits): 0.35 mmol/kg
T1 relaxation time (rabbits; [19]): 219 ms
T2 relaxation time (rabbits; [19]): 73 ms
T1 relaxation time (rabbits; [20]): 150 ms
T2 relaxation time (rabbits; [20]): 60 ms
T1 relaxation time (rabbits; [21]): 130 ms
T2 relaxation time (rabbits; [21]): 50 ms
T1 relaxation time (rabbits; [22]): 141 ms
T2 relaxation time (rabbits; [22]): 45 ms
Approximate ED50, intravenous dose to reduce tissue T1 by 50% (rabbits; Small Intestine, rabbits): 0.051 mmol/kg
Approximate ED50, intravenous dose to reduce tissue T2 by 50% (rabbits; Small Intestine, rabbits): 0.27 mmol/kg
T1 relaxation time (rabbits; [23]): 346 ms
T2 relaxation time (rabbits; [23]): 73 ms
T1 relaxation time (rabbits; [24]): 260 ms
T2 relaxation time (rabbits; [24]): 70 ms
T1 relaxation time (rabbits; [25]): 195 ms
T2 relaxation time (rabbits; [25]): 65 ms
T1 relaxation time (rabbits; [26]): 202 ms
T2 relaxation time (rabbits; [26]): 71 ms
Approximate ED50, intravenous dose to reduce tissue T1 by 50% (rabbits; Spleen, rabbits): 0.085 mmol/kg
T1 relaxation time (rabbits; [27]): 287 ms
T2 relaxation time (rabbits; [27]): 56 ms
T1 relaxation time (rabbits; [28]): 199 ms
T2 relaxation time (rabbits; [28]): 53 ms
T1 relaxation time (rabbits; [29]): 122 ms
T2 relaxation time (rabbits; [29]): 43 ms
T1 relaxation time (rabbits; [30]): 121 ms
T2 relaxation time (rabbits; [30]): 47 ms
Approximate ED50, intravenous dose to reduce tissue T1 by 50% (rabbits; Stomach, rabbits): 0.068 mmol/kg
Approximate ED50, intravenous dose to reduce tissue T2 by 50% (rabbits; Stomach, rabbits): 0.93 mmol/kg
effect on hepatic and biliary T1 relaxation times (rabbits; listed as dihydrogen bis(N-[N′-(2,6-dimethylphenyl)carbamoylmethyl]-iminodiaceto)manganese): dramatically reduced
effect on hepatic and biliary T1 relaxation times (rabbits; listed as dihydrogen bis(N-[N′-(2,6-dimethylphenyl)carbamoylmethyl]iminodiaceto)-manganese): dramatically reduces hepatic and biliary T1 relaxation times
bile T1 relative to preinjection control value (rabbit; at 105 min): less than 10%
bile T2 relaxation time (rabbit; gradual increase following injection): 44 ms
bile T1 relaxation time (rabbit; over the 105 minute time course (end value)): 91 ms
bile T1 relaxation time (rabbit; within 1 min of injection): 60 ms
